Entries after “also recorded” stand apart in the source; their conditions may differ.
How the values were obtained:
[1] = tested on: Enterococcus faecalis No. 559; test: Specific activity against resistant bacterial strains; type: cell-based; conditions: Ent. faecalis 559; 24 h, 36° C.
Description: (§1) The tested agents were water-soluble hemin derivatives (compounds VII and XVIII) or DMSO-soluble derivatives (compounds VIII, XV, and XIV). Vancomycin was the reference compound. Each compound was tested in three replicas.
(§2) Sterile single-use flat-bottomed 96-well plates, Petri dishes, pipettes, tips, and test tubes (Pan-Eco, Moscow) were used in the study.
(§3) The nutritional media used were as follows. A working Mueller Hinton broth was prepared from dry media (Mueller Hinton broth, Acumedia, Baltimore) and sterilized by autoclaving at 121° C. for 15 min.
(§4) Staphylococcus aureus was cultured on the Tripticase Soy Agar (BBL) commercially available dry medium. Enterococcus faecalis was cultured on the Columbia Agar Base (BBL) commercially available dry medium. These media were sterilized by autoclaving at 121° C. for 15 min.
(§5) Bacterial inoculum was fixed and equal to 5×10^5 CFU/mL.
(§6) For water-soluble compounds, wells from 2nd through 8th were added with the solvent (water) in an amount of 15 μL per well, then the 1st well was added with 30 μL of the stock solution of the tested compound in water with a concentration of 1×10^3M, and the concentration was adjusted to 0.007×10^3 M by serial twofold dilutions. A 10-μL portion was taken from every well, and 190 μL of the bacterial culture (10^5 CFU) was added per well.
(§7) For DMSO-soluble compounds, wells from 2nd through 8th were added with the solvent (DMSO) in an amount of 10 μL per well, then the 1st well was added with 20 μL of the stock solution of the tested compound in […] with a concentration of 5×10^3M, and the concentration was adjusted to 0.039×10^3 M by serial twofold dilutions. A 2-μL portion was taken from each well, and 198 μL of the bacterial culture (10^5 CFU) was added per well.
(§8) The control comprised wells free of tested compounds (culture growth control). In addition, purity control of nutritional media and solvents was used. Plates were incubated in a thermostat at 36° C. for 24 hours.
(§9) Culture growth was evaluated visually by comparison of how microorganisms grew in the presence of tested compounds and in the absence of them. MSC (the minimal suppressing concentration) was set equal to the last dilution of a tested agent which suppressed bacterial culture growth.

[2] = tested on: Staphylococcus aureus No. 100 KC; test: as above; type: cell-based; conditions: St. aureus 100 KC; 24 h, 36° C.
Description: as §1, §2, §3, §4, §5, §6, §7, §8, §9

[3] = tested on: Staphylococcus aureus No. 25923 ATCC; test: as above; type: cell-based; conditions: St. aureus 25923; 24 h, 36° C.
Description: as §1, §2, §3, §4, §5, §6, §7, §8, §9

[4] = tested on: Staphylococcus epidermidis No. 533; test: as above; type: cell-based; conditions: St. epiderm 533; 24 h, 36° C.
Description: as §1, §2, §3, §4, §5, §6, §7, §8, §9

[5] = tested on: Enterococcus faecium No. 569; test: as above; type: cell-based; conditions: Ent. faecium 569; 24 h, 36° C.
[6] = Solubility of tested agents (water / DMSO); conditions: water or DMSO
[7] = tested on: human leukocytes; test: Cytotoxic activity against human leukocytes; conditions: for toxic effect on human blood leukocytes (in words): concentrations of up to 1 mM, 3 h
Description: Total leukocytes were isolated from human blood by unforced sedimentation using freshly collected venous blood from a healthy donor.
Blood (10 mL) added with 10 units/mL heparin was exposed for 2.5 h in the dark at a temperature of 15 to 18° C. A light-colored liquid supernatant (4 mL) was collected over the layer of sedimenting erythrocytes, washed three times with balanced Hanks's salt solution, and resuspended in the RPMI-1640 medium (added with 8% fetal bovine serum, 2 mM L-glutamine, and 10 mM HEPES; hereinafter, the complete medium).
The concentrations of leukocytes and erythrocytes in the suspension were determined by counts in Goryachev's chamber, after which the suspension was adjusted to a leukocyte concentration of (1.0±0.1)×10^6 cells/mL with the complete medium.
To determine the cytotoxicity of the tested compounds for human leukocytes, the cell suspension was transferred to wells of sterile 96-well plates, tested compounds were added with serial twofold dilutions (the range of tested concentrations was from 3.2 to 100 μM for GrD and gramicidin S; from 8 to 500 μM for compound XIII; and from 8 to 1000 μM for compounds V, VI, VII, VIII, IX, X, XI, XIV, XV, XIX, and Hem), and the mixture was carefully stirred. The experiment was performed in two replicas.
As controls served cells added with an equivalent amount of the solvent in which tested compounds were prepared, namely: water for compounds VII and X; an aqueous solution of DMSO for compounds V, VI, VIII, and IX; and DMSO for GrD, gramicidin S, Hem, XI, XIII, XIV, XV, and XIX. An additional control was an additive-free leukocyte suspension.
Cells were incubated with tested compounds for 3 h (37° C., 5% CO2, 100% humidity). Leukocyte death values were quantified using fluorescence microscopy. Staining with propidium iodide (it permeates only into dead cells nuclei) and Hoechst 33342 (it stains all nuclei) was used to recognize dead and living cells. Cells were incubated for 15 min in plates with propidium iodide and Hoechst 33342 (37° C., 5% CO2), and then the plates were placed under a microscope for analysis.
The dead cell fraction was derived from the fluorescence images of cells obtained in the blue (Hoechst 33342) and red (propidium iodide) spectral ranges using an Axio Observer (Zeiss, Germany) fluorescence microscope equipped with a 10× objective lens (Plan-Neofluar 10×/0.3). The following sets of fluorescence filters were used. For propidium iodide: a 530/585-nm bandpass excitation filter, a 600-nm cut-off dichroic minor, and a 615-nm longpass barrier filter for analysis. For Hoechst 33342: a 359/372-nm bandpass excitation filter, a 395-nm cut-off dichroic mirror, and a 397-nm longpass barrier filter for analysis.
A digital camera recorded three types of cell images: (a) an image in the transmitted white light; (b) a blue fluorescence image obtained with UV excitation, and (c) a red fluorescence image obtained with green light excitation. At least four fields of view were photographed per well in various regions of a well.

SMILES	MICs for hemin derivatives against Gr+ strains [1] [µM]	MICs for hemin derivatives against Gr+ strains [2] [µM]	MICs for hemin derivatives against Gr+ strains [3]	MICs for hemin derivatives against Gr+ strains [4] [µM]	MICs for hemin derivatives against Gr+ strains [5]	solubility (in words) [6]	Death of leukocytes in the presence of 1 mM of compound ([7]; 3 h incubation) [%]	toxic effect on human blood leukocytes (in words) [7]	Death of leukocytes in the presence of 1 mM of compound ([7]; 3 h incubation, listed as hemin) [%]	concentration at which a weak toxic effect on leukocytes appears ([7]; 3 h incubation) [µM]
C=CC1=C(C)c2cc3[n-]c(cc4nc(cc5[n-]c(cc1n2)c(C)c5CCC(=O)N[C@@H](CCC(=O)N[C@@H](CCCNC(=N)N)C(=O)OC)C(=O)N[C@@H](CCCNC(=N)N)C(=O)OC)C(CCC(=O)N[C@@H](CCC(=O)N[C@@H](CCCNC(=N)N)C(=O)OC)C(=O)N[C@@H](CCCNC(=N)N)C(=O)OC)=C4C)c(C)c3C=C.[Cl-].[Fe+3] [Compound XVIII, 6,7-bis[bis(N^α-L-Arginyl Methyl Ester)-L-Glutamyl]-Protohemin IX]	0.78	1.56	7.8e-07 M	0.78	6.25e-06 M	water-soluble				
C=CC1=C(C)c2cc3[n-]c(cc4nc(cc5[n-]c(cc1n2)c(C)c5CCC(=O)N[C@@H](CO)C(=O)OC)C(CCC(=O)N[C@@H](CO)C(=O)OC)=C4C)c(C)c3C=C.[Cl-].[Fe+3] [VIII]	3.12	6.25	2.6e-06 M	5.21	>5.0. ×10^−5 M	DMSO-soluble; also recorded: water-insoluble	6.1 ± 0.3	did not cause the death		
C=CC1=C(C)c2cc3[n-]c(cc4[n-]c(cc5nc(cc1n2)C(C)=C5C=C)c(C)c4CCC(=O)O)c(CCC(=O)O)c3C.[Cl-].[Fe+3] [Hem, hemin]	>10	>10	>1e-05 M	>10	>1e-05 M	water-insoluble	40 ± 2		40	
C=CC1=C(C)c2cc3[n-]c(cc4nc(cc5[n-]c(cc1n2)c(C)c5CCC(=O)NCCO)C(CCC(=O)NCCO)=C4C)c(C)c3C=C.[Cl-].[Fe+3] [Compound XIV, Protohemin IX 6,7-bis-N-(2-Hydroxyethyl)amide]	6.25	>50	5.21e-06 M	5.21	>5e-05 M	DMSO-soluble; also recorded: water-insoluble	17.5 ± 0.7			~1000
C=CC1=C(C)c2cc3[n-]c(cc4nc(cc5[n-]c(cc1n2)c(C)c5CCC(=O)N[C@@H](CCCNC(=N)N)C(=O)OC)C(CCC(=O)N[C@@H](CCCNC(=N)N)C(=O)OC)=C4C)c(C)c3C=C.[Cl-].[Fe+3] [VII]	25	50	2.5. ×10^−5 M	25	>5e-05 M	water-soluble	8.0 ± 0.8	did not cause the death		

Reference: US8906897B2, “Antimicrobial agents based on hemin derivatives” (Obschestvo S Ogranichennoi Otvetstvennostiyu …, priority 2009, dated 2014)
